# Test system: Hippocampal neurons
# Test: Western blot of VGF protein after BDNF treatment
# Format: cell-based, rat
# Description: The products of the genes induced following learning may regulate neuronal plasticity at the single-cell level. VGF, like BDNF, is a secreted polypeptide and thus may be relevant for intercellular communication. A functional role for VGF in synaptic plasticity was thus investigated. To determine whether BDNF-induced transcriptional changes of VGF were accompanied by translational alterations, VGF levels were examined following BDNF treatment by western blot analysis. VGF, migrating as a doublet with an apparent molecular weight of 85-90 kD, increased by 1.5-fold within 3 hours of BDNF exposure. VGF protein levels were maximal at 12 hours and remained elevated for 48 hours of continuous BDNF application. Consequently, increased VGF mRNA levels after 3 hours BDNF treatment were associated with enhanced protein translation. VGF protein processing occurs in both neurons and neuroendocrine cells (Trani et al. (1995) J. Neurochem. 65:2441-2449; Salton et al. (2000) supra). The localization of VGF in dissociated hippocampal cultures was examined using a C-terminal antibody (R-15) which labeled both the soma and neurites indicating translocation to the neuronal processes. The expression of VGF was similar to that previously observed in primary neuronal cultures (Benson and Salton (1996) Brain Res. Dev. Brain Res. 96:219-228) and was punctate in appearance. This pattern is consistent with the regulated release of VGF from large dense core vesicles (Trani et al. (1995) supra; Benson and Salton (1996) supra; Possenti et al. (1999) Endocrinology 140:3727-3735) and indicates a physiological role for the peptide.
# BDNF-treated and untreated hippocampal neurons plated in equal numbers were solubilized in lysis buffer (20 mM Tris pH 8, 0.5% Triton X-100, 0.5% SDS, protease inhibitor tablet, 1 mM PMSF, and 0.5 mM vanadate). The protein content was determined with the BCA protein assay kit (Pierce Chemical Co, Rockford, Ill.). […] The immunopositive bands were visualized by chemiluminescence using the ECL™ detection kit (NEN, Boston, Mass.), quantitated on a BIO-RAD Gel Doc and normalized to actin.
substance,measurement,setting,value
"BDNF: neurotrophin, 50 ng/ml, Preprotech; induces synaptic plasticity in hippocampal neurons",Time VGF protein levels remained elevated,continuous BDNF application,48 h
same,Time of maximal VGF protein levels,continuous BDNF application,12 h
same,Increase in VGF protein,"within 3 hours of BDNF exposure, western blot",1.5 fold
